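Results reflect a 48-hour exposure of cells in 96-well plates to compound at five concentrations. At the GI50, growth is halved. Definition used: TGI = concentration required for complete inhibition of growth.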
Columns and labels:
Experiment in all cases: NCI anticancer screen, dose series, 48 h
[1] = test system: EKVX NSCLC
[2] = test system: MDA-MB-435
[3] = test system: NCI-H460 lung
[4] = test system: OVCAR-5 ovarian
[5] = test system: PC-3 prostate
[6] = test system: SR leukemia
[7] = test system: SW-620 colon
[8] = test system: TK-10 renal
[9] = test system: U251 CNS
[10] = test system: UACC-62 melanoma

## COc1ccc2nc(-c3ccc(O)cc3)sc2c1
[1]
  TGI: 35.7 µM
[2]
  TGI: 56 µM
[3]
  TGI: > 100 µM
[4]
  TGI: 31.6 µM
[5]
  TGI: 45.2 µM
[6]
  TGI: 22.5 µM
[7]
  TGI: 44.5 µM
[8]
  TGI: 70.2 µM
[9]
  TGI: 36.2 µM
[10]
  TGI: 42.9 µM

## CO/N=C(\C)c1cccc(Nc2c3ccccc3nc3occc23)c1
[1]
  TGI: 37.2 µM
[2]
  TGI: 6 µM
[3]
  TGI: 23.7 µM
[4]
  TGI: 46.8 µM
[5]
  TGI: > 100 µM
[6]
  TGI: 16.4 µM
[8]
  TGI: 48.8 µM
[9]
  TGI: 38.6 µM
[10]
  TGI: 22.5 µM

## Cc1cc(=O)oc2c(CNC(Cc3ccccc3)C(=O)O)c(O)ccc12 (configuration not stated)
[1]
  TGI: > 100 µM
[2]
  TGI: > 100 µM
[3]
  TGI: > 100 µM
[4]
  TGI: > 100 µM
[5]
  TGI: > 100 µM
[6]
  TGI: > 100 µM
[7]
  TGI: > 100 µM
[8]
  TGI: > 100 µM
[9]
  TGI: > 100 µM
[10]
  TGI: > 100 µM

## Cc1nc2c(=O)n(C)ncc2[nH]1
[1]
  TGI: > 100 µM
[2]
  TGI: > 100 µM
[3]
  TGI: > 100 µM
[4]
  TGI: > 100 µM
[5]
  TGI: > 100 µM
[6]
  TGI: > 100 µM
[7]
  TGI: > 100 µM
[8]
  TGI: > 100 µM
[9]
  TGI: > 100 µM
[10]
  TGI: > 100 µM

## CC(=O)OCC1OC(n2c(-c3ccc(C)cc3)cc(-c3ccccc3)c(C#N)c2=S)C(OC(C)=O)C(OC(C)=O)C1OC(C)=O (configuration not stated)
[1]
  TGI: > 100 µM
[2]
  TGI: > 100 µM
[3]
  TGI: > 100 µM
[4]
  TGI: > 100 µM
[5]
  TGI: > 100 µM
[6]
  TGI: > 100 µM
[7]
  TGI: > 100 µM
[8]
  TGI: > 100 µM
[9]
  TGI: > 100 µM
[10]
  TGI: > 100 µM

## O=C1c2ccccc2C(=O)N1CC(O)COc1cccc2ccccc12 (configuration not stated)
[1]
  TGI: > 100 µM
[2]
  TGI: > 100 µM
[3]
  TGI: > 100 µM
[4]
  TGI: > 100 µM
[5]
  TGI: > 100 µM
[6]
  TGI: > 100 µM
[7]
  TGI: > 100 µM
[8]
  TGI: > 100 µM
[9]
  TGI: > 100 µM
[10]
  TGI: > 100 µM

## CC(=O)O[C@H]1[C@H](OC(=O)CC(C)(O)CC(=O)O)C[C@]2(C)C3=C(CCC2C1(C)C)[C@]1(C)CC[C@H]([C@H]2CC[C@H](C(C)(C)O)OC2O)[C@@]1(C)[C@@H](O)C3 (some centres not stated)
[1]
  TGI: 38.9 µM
[2]
  TGI: 35.1 µM
[3]
  TGI: 28.6 µM
[4]
  TGI: 31.7 µM
[5]
  TGI: 33.2 µM
[6]
  TGI: 60.1 µM
[7]
  TGI: 27.2 µM
[8]
  TGI: 63.4 µM
[9]
  TGI: 35.5 µM
[10]
  TGI: 37 µM

## CC(C(O)c1ccccc1)C(O)(C(F)(F)F)C(F)(F)F (configuration not stated)
[1]
  TGI: > 100 µM
[2]
  TGI: > 100 µM
[3]
  TGI: > 100 µM
[4]
  TGI: > 100 µM
[5]
  TGI: > 100 µM
[6]
  TGI: > 100 µM
[7]
  TGI: > 100 µM
[8]
  TGI: > 100 µM
[9]
  TGI: > 100 µM
[10]
  TGI: > 100 µM

## O=C1CSC(c2cccc([N+](=O)[O-])c2)N1c1ccc(-n2c(-c3ccccc3)nc3ccccc3c2=O)cc1 (configuration not stated)
[1]
  TGI: > 100 µM
[2]
  TGI: > 100 µM
[3]
  TGI: > 100 µM
[4]
  TGI: > 100 µM
[5]
  TGI: > 100 µM
[6]
  TGI: > 100 µM
[7]
  TGI: > 100 µM
[8]
  TGI: > 100 µM
[9]
  TGI: > 100 µM
[10]
  TGI: > 100 µM

## Cc1ccccc1S(=O)(=O)Nn1cnc2ccc(S(=O)(=O)Nc3ccc(Cl)cc3)cc2c1=O
[1]
  TGI: > 100 µM
[2]
  TGI: > 100 µM
[3]
  TGI: > 100 µM
[4]
  TGI: > 100 µM
[5]
  TGI: > 100 µM
[6]
  TGI: > 100 µM
[7]
  TGI: > 100 µM
[8]
  TGI: > 100 µM
[9]
  TGI: > 100 µM
[10]
  TGI: > 100 µM

## CO/N=C(\C)CCC#Cc1ccccc1C(=O)OC
[1]
  TGI: > 10 µM
[2]
  TGI: > 10 µM
[3]
  TGI: > 10 µM
[4]
  TGI: > 10 µM
[5]
  TGI: > 10 µM
[6]
  TGI: > 10 µM
[7]
  TGI: > 10 µM
[8]
  TGI: > 10 µM
[9]
  TGI: > 10 µM
[10]
  TGI: > 10 µM

## CC1=C(C)Cc2c(O)ccc(O)c2C1
[1]
  TGI: 29.5 µM
[2]
  TGI: 30.5 µM
[3]
  TGI: > 100 µM
[4]
  TGI: 38.6 µM
[5]
  TGI: 32.1 µM
[6]
  TGI: 38.8 µM
[7]
  TGI: 37.6 µM
[8]
  TGI: 36.9 µM
[9]
  TGI: 34.2 µM
[10]
  TGI: 30.1 µM

## NC(=S)N/N=C\c1nccc2ccccc12
[1]
  TGI: 2.21 µM
[2]
  TGI: > 100 µM
[3]
  TGI: 25.5 µM
[4]
  GI50: 0.469 µM
  TGI: > 100 µM
[5]
  TGI: > 100 µM
[6]
  TGI: 0.731 µM
[7]
  TGI: > 100 µM
[8]
  TGI: 39.8 µM
[9]
  TGI: > 58.6 µM
[10]
  TGI: 0.538 µM

## COC(=O)C(CCSC)NC(=O)Cc1ccc(C(=O)c2ccccc2)cc1 (configuration not stated)
[1]
  TGI: > 100 µM
[2]
  TGI: 93.6 µM
[3]
  TGI: > 100 µM
[4]
  TGI: > 100 µM
[5]
  TGI: > 100 µM
[6]
  TGI: > 100 µM
[7]
  TGI: > 100 µM
[9]
  TGI: > 100 µM
[10]
  TGI: > 100 µM

## CCOC(=O)c1c(N2CCOCC2)[nH]c(=O)c(C(c2ccco2)c2c(O)c(C(=O)OCC)c(N3CCOCC3)[nH]c2=O)c1O
[1]
  TGI: > 100 µM
[2]
  TGI: > 100 µM
[3]
  TGI: > 100 µM
[4]
  TGI: > 100 µM
[5]
  TGI: > 100 µM
[6]
  TGI: > 100 µM
[7]
  TGI: > 100 µM
[8]
  TGI: > 100 µM
[9]
  TGI: > 100 µM
[10]
  TGI: > 100 µM

## COc1ccc2c(c1)CCc1c-2n(CCN2CCCCC2)c2ccc(OC)cc12
[1]
  TGI: > 100 µM
[2]
  TGI: > 100 µM
[3]
  TGI: > 100 µM
[4]
  TGI: > 100 µM
[5]
  TGI: > 100 µM
[6]
  TGI: > 100 µM
[7]
  TGI: > 100 µM
[8]
  TGI: > 100 µM
[9]
  TGI: > 100 µM
[10]
  TGI: > 100 µM

## Cn1c2ccccc2c(=O)c2cccc(C(=O)NC(CCC(N)=O)C(=O)O)c21 (configuration not stated)
[1]
  TGI: > 100 µM
[2]
  TGI: > 100 µM
[3]
  TGI: > 100 µM
[4]
  TGI: > 100 µM
[5]
  TGI: > 100 µM
[6]
  TGI: > 100 µM
[7]
  TGI: > 100 µM
[8]
  TGI: > 100 µM
[9]
  TGI: > 100 µM
[10]
  TGI: > 100 µM

## COc1cc(/C=C/C(=O)C2(C(=O)/C=C/c3cc(OC)c(OC)c(OC)c3)CCCCC2)cc(OC)c1OC
[1]
  TGI: > 100 µM
[2]
  TGI: 42.5 µM
[3]
  TGI: > 100 µM
[4]
  TGI: > 100 µM
[5]
  TGI: > 100 µM
[6]
  TGI: > 100 µM
[7]
  TGI: > 100 µM
[8]
  TGI: > 100 µM
[9]
  TGI: > 100 µM
[10]
  TGI: 53.8 µM

## Oc1ccc2c(c1)-c1c(c3ccccc3n1CCN1CCOCC1)CC2
[1]
  TGI: > 100 µM
[2]
  TGI: > 100 µM
[3]
  TGI: > 100 µM
[4]
  TGI: 61.3 µM
[5]
  TGI: > 100 µM
[6]
  TGI: > 100 µM
[8]
  TGI: 94.4 µM
[9]
  TGI: > 100 µM
[10]
  TGI: 81 µM

## Nn1c(Cc2ccc([N+](=O)[O-])cc2)n[nH]c1=O
[1]
  TGI: > 100 µM
[2]
  TGI: > 100 µM
[3]
  TGI: > 100 µM
[4]
  TGI: > 100 µM
[5]
  TGI: > 100 µM
[6]
  TGI: > 100 µM
[7]
  TGI: > 100 µM
[9]
  TGI: > 100 µM
[10]
  TGI: > 100 µM

— PubChem BioAssay (NCI)
